Experiments:
ABCA1 gene expression = ABCA1 gene expression in peritoneal macrophages treated with LXR agonist (real time qPCR); format: cell-based, mouse; conditions: peritoneal young or old macrophages, 24 hours, 0 to 10 μM, FIG. 4a-b
Procedure: (§1) Peritoneal macrophages recruitment was elicited by intraperitoneal injection of 4% thioglycollate. Five days after injection, macrophages were harvested and cultured in RPMI-1640 overnight (Gibco, Grand Island, N.Y.). Macrophages were then washed with RPMI-1640 and non-adherent cells removed. Total RNA was prepared from splenic macrophage, peritoneal macrophages, retina, choroid or PBMCs using the RNeasy mini kit (Qiagen inc., Valencia, Calif.). cDNA was prepared using the High Capacity cDNA Archive Kit (Applied Biosystems) and PCR amplifications of cDNA were performed using Taqman probe-based gene expression assay (Applied Biosystems) as previously described (Kelly, J., et al., Senescence regulates macrophage activation and angiogenic fate at sites of tissue injury in mice. J Clin Invest 117, 3421-3426, 2007). Primer and probe sets were as follows: ActB. Mm00607939_s1; ABCA1, Mm00442649_ml; ABCG1, Mm01348250_ml; IL-6, Mm00446190_ml; FasL, Mm00438864_ml; IL-10, Mm99999062_ml; 18s rRNA. Hs99999901_s1; ABCA1, Hs00442663_ml; ABCG1: Hs 01555199_gl; IL10, Hs00961622_ml. Young and old peritoneal macrophages were treated with Liver X Receptor (LXR) agonist, TO-901317 (Sigma-Aldrich, St. Louis, Mo.) for 24 hours. […] Treated macrophages were analyzed for ABCA1 and ABCG1 gene expression and their ability to inhibit HMVECs proliferation was tested.

ABCG1 gene expression = ABCG1 gene expression in peritoneal macrophages treated with LXR agonist (real time qPCR); format: cell-based, mouse; conditions: peritoneal young or old macrophages, 24 hours, 0 to 10 μM, FIG. 4a-b
Procedure: as §1

HMVECs = experiment: Vascular endothelial cell proliferation assay: HMVECs co-cultured with treated peritoneal macrophages, [3H] thymidine; format: cell-based, human
Procedure: Cell proliferation was measured with an adaptation of a previously described method (Khan, A. A. & Apte, R. S. An assay for macrophage-mediated regulation of endothelial cell proliferation. Immunobiology 213, 695-699, 2008). HMVECs (1×10^4 cells) in log phase were cultured in 96-well round-bottomed plates for adherence. HMVECS cells were then co-cultured with peritoneal macrophages (1:25 ratio) and incubated with 5 μCi/ml [^3H] thymidine (PerkinElmer) for 24 hours. Cells were harvested onto glass fiber filters (Packard) and incorporated [3H] thymidine was read using TopCount NXT (PerkinElmer).
Young and old peritoneal macrophages were treated with Liver X Receptor (LXR) agonist, TO-901317 (Sigma-Aldrich, St. Louis, Mo.) for 24 hours. LXR agonist was dissolved in DMSO (vehicle) and treatment dosage ranged from 0 to 10 μM. Treated macrophages were analyzed for ABCA1 and ABCG1 gene expression and their ability to inhibit HMVECs proliferation was tested.
Peritoneal macrophages were transfected with 50 nM miScript miR33 inhibitor (anti-miR33) or negative control inhibitor (con anti-miR) using HiPerFect Transfection reagent (Qiagen). The transfection efficiency of macrophages was assessed using BLOCK-iT Fluorescent Oligo (Invitrogen). After miR33 inhibition, target genes and proteins were analyzed by qPCR and Western blot.

ABCA1 expression = ABCA1 expression in tissues of old mice after 5 days of intraperitoneal TO-901317; format: in vivo, mouse; conditions: 25 or 50 mg/kg/day for 5 days, FIG. 4e-g and FIG. 10
Procedure: (§2) Total RNA was prepared from splenic macrophage, peritoneal macrophages, retina, choroid or PBMCs using the RNeasy mini kit (Qiagen inc., Valencia, Calif.). cDNA was prepared using the High Capacity cDNA Archive Kit (Applied Biosystems) and PCR amplifications of cDNA were performed using Taqman probe-based gene expression assay (Applied Biosystems) as previously described (Kelly, J., et al., Senescence regulates macrophage activation and angiogenic fate at sites of tissue injury in mice. J Clin Invest 117, 3421-3426, 2007). Primer and probe sets were as follows: ActB. Mm00607939_s1; ABCA1, Mm00442649_ml; ABCG1, Mm01348250_ml; IL-6, Mm00446190_ml; FasL, Mm00438864_ml; IL-10, Mm99999062_ml; 18s rRNA. […]
(§3) Whole cell lysate was extracted from mouse peritoneal macrophages or human PBMCs using lysis buffer (50 mM Tris (pH=7.4), 150 mM NaCl, 1% EDTA, 10% TritonX, and 1% SDS) with proteinase inhibitor (Complete, Roche). […] Proteins were detected and analyzed using the Odyssey Infrared Imaging System (LI-COR Biosciences, Lincoln, Nebr.). Band densities of ABCA1 and ABCG1 were quantified and normalized to β-actin.
(§4) Old mice (>18 months) were given a daily intraperitoneal injection of vehicle, 25 mg/kg or 50 mg/kg TO-901317. After five consecutive days treatment, CNV was induced in one set of mice (5 of each group) and analyzed as described above. […]

ABCG1 expression = ABCG1 expression in tissues of old mice after 5 days of intraperitoneal TO-901317; format: in vivo, mouse; conditions: 25 or 50 mg/kg/day for 5 days, FIG. 4e-g and FIG. 10
Procedure: as §2, §3, §4

[1] = system: choroidal neovascularization (CNV); experiment: Laser-induced CNV in old mice; format: in vivo, mouse; conditions: intraperitoneal, 25 or 50 mg/kg/day for 5 days prior to laser, FIG. 4h-i
Procedure: Rupture of Bruchs membrane with laser was used to initiate CNV in mice as described previously (Apte R S, Niederkorn J Y. Isolation and characterization of a unique natural killer cell inhibitory factor present in the anterior chamber of the eye. J. Immunol. 156:2667-2673, 1996). Briefly, mice were anesthetized by injecting ketamine hydrochloride (100 mg/kg) and xylazine (13.4 mg/kg) intraperitoneally, and their pupils were dilated with 1% tropicamide. Using argon green laser, four laser burns were placed around the optic nerve (0.1 second, 50 μm, and 110 mW). Seven days after laser, mice were anesthetized as described above and perfused intraventricularly with FITC-dextran (Sigma-Aldrich). Mice were euthanized in a CO2 chamber, and their eyes were harvested for tissue processing. […]
Micro scissors were used to make four radial incisions in the sclerochoroidal “eyecup” to prepare choroidal flat mounts on glass slides. […] The choroidal flat mounts were analyzed for the presence of CNV by confocal microscopy. The extent of choroidal neovascularization was quantified by Metamorph Imaging software. […]
as §4

`O=S(=O)(c1ccccc1)N(CC(F)(F)F)c1ccc(C(O)(C(F)(F)F)C(F)(F)F)cc1` [TO-901317, N-(2,2,2-trifluoro-ethyl)-N-[4-(2,2,2-tri-fluoro-1-hydroxy-1-trifluoromethyl-ethyl)-phenyl]-benzenesulfonamide] was tested, and the ABCA1 gene expression (ABCA1 gene expression) was “dose-dependent upregulation”, the ABCG1 gene expression (ABCG1 gene expression) was “dose-dependent upregulation” and the “ability of treated macrophages to inhibit HMVECs proliferation” value (HMVECs; Abca1−/− macrophages treated with LXR agonist) was “does not restore their ability to inhibit HMVECs proliferation”. The “ability of treated macrophages to inhibit endothelial cell proliferation” value (HMVECs; old macrophages treated with LXR agonist, co-cultured with HMVECs, FIG. 4d) was “completely restored their ability to inhibit endothelial cell proliferation”, the “ABCA1 expression compared to vehicle treated mice” value (ABCA1 expression) was “strong systemic upregulation” and the “ABCG1 expression compared to vehicle treated mice” value (ABCG1 expression) was “strong systemic upregulation”. For the same compound, the “CNV compared to vehicle treated old mice” value [1] was “significant and dose dependent reduction in CNV”.

From US9399045B2, “Inhibition of choroidal neovascularization” (Washington University, priority 2011, dated 2016)
